# Experimental data: the supplement of paper PMC10307832
# Experiments:
# Experiment in all cases: relative viability (nuclei count vs DMSO), 5 days (fraction); higher = more cells survive
# NCI-H2009 = system: NCI-H2009
# How it was run: (§1)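 Lung cancer cell lines were seeded in 1536-well plates and dosed by pin tool the next day, with either a single drug or a fixed anchor-drug dose combined with five library-drug doses (not always all listed) spaced in √10 steps. Five days later, one step fixed the cells and stained their nuclei (final 0.05% Triton X-100, 1% formaldehyde, 1 ug/ml Hoechst), and nuclei were counted on 4× images. Relative viability is the nuclei count in treated wells divided by the count in vehicle wells, and each value is the median of duplicate plates.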
# NCI-H1993 = system: NCI-H1993
# How it was run: as §1
# SK-MES-1 = system: SK-MES-1
# How it was run: as §1
# NCI-H2170 = system: NCI-H2170
# How it was run: as §1
# NCI-H1355 = system: NCI-H1355
# How it was run: as §1
# NCI-H647 = system: NCI-H647
# How it was run: as §1
# NCI-H2228 = system: NCI-H2228
# How it was run: as §1
# NCI-H1793 = system: NCI-H1793
# How it was run: as §1
# COR-L23 = system: COR-L23
# How it was run: as §1
# COR-L 105 = system: COR-L 105
# How it was run: as §1
# NCI-H1755 = system: NCI-H1755
# How it was run: as §1
# EKVX = system: EKVX
# How it was run: as §1
# UMC-11 = system: UMC-11
# How it was run: as §1
# NCI-H322M = system: NCI-H322M
# How it was run: as §1
# NCI-H2347 = system: NCI-H2347
# How it was run: as §1
# HOP-62 = system: HOP-62
# How it was run: as §1
# NCI-H838 = system: NCI-H838
# How it was run: as §1
# PC-14 = system: PC-14
# How it was run: as §1
# NCI-H358 = system: NCI-H358
# How it was run: as §1
# HARA = system: HARA
# How it was run: as §1
# NCI-H1734 = system: NCI-H1734
# How it was run: as §1
# NCI-H1395 = system: NCI-H1395
# How it was run: as §1
smiles,measurement,setting,value
C[C@@H]1CN(CC(=O)Nc2ccc3c(c2)Cc2cccc(-c4cc(=O)cc(N5CCOCC5)o4)c2S3)C[C@H](C)O1 + CS(=O)(=O)CCNCc1ccc(-c2ccc3ncnc(Nc4ccc(OCc5cccc(F)c5)c(Cl)c4)c3c2)o1 [Lapatinib] (partner 2 µM),relative viability,NCI-H2009; first compound 0.04 µM,0.486
same,relative viability,NCI-H2009; first compound 0.1265 µM,0.846
same,relative viability,NCI-H2009; first compound 0.4 µM,0.964
same,relative viability,NCI-H2009; first compound 4 µM,0.687
same,relative viability,NCI-H1993; first compound 0.04 µM,0.862
same,relative viability,NCI-H1993; first compound 0.1265 µM,0.86
same,relative viability,NCI-H1993; first compound 0.4 µM,0.812
same,relative viability,NCI-H1993; first compound 4 µM,0.833
same,relative viability,SK-MES-1; first compound 0.04 µM,0.463
same,relative viability,SK-MES-1; first compound 0.1265 µM,0.53
same,relative viability,SK-MES-1; first compound 0.4 µM,0.429
same,relative viability,SK-MES-1; first compound 4 µM,0.409
same,relative viability,NCI-H2170; first compound 0.1265 µM,0.251
same,relative viability,NCI-H2170; first compound 0.4 µM,0.277
same,relative viability,NCI-H2170; first compound 4 µM,0.277
same,relative viability,NCI-H1355; first compound 0.04 µM,0.713
same,relative viability,NCI-H1355; first compound 0.1265 µM,0.992
same,relative viability,NCI-H1355; first compound 0.4 µM,0.816
same,relative viability,NCI-H1355; first compound 4 µM,0.97
same,relative viability,NCI-H647; first compound 0.04 µM,1.02
same,relative viability,NCI-H647; first compound 0.1265 µM,1.07
same,relative viability,NCI-H647; first compound 0.4 µM,1.16
same,relative viability,NCI-H647; first compound 4 µM,0.638
same,relative viability,NCI-H2228; first compound 0.04 µM,1.23
same,relative viability,NCI-H2228; first compound 0.1265 µM,1.05
same,relative viability,NCI-H2228; first compound 0.4 µM,0.974
same,relative viability,NCI-H2228; first compound 4 µM,0.618
same,relative viability,NCI-H1793; first compound 0.04 µM,0.809
same,relative viability,NCI-H1793; first compound 0.1265 µM,0.743
same,relative viability,NCI-H1793; first compound 0.4 µM,0.734
same,relative viability,NCI-H1793; first compound 4 µM,0.649
same,relative viability,COR-L23; first compound 0.04 µM,0.893
same,relative viability,COR-L23; first compound 0.1265 µM,1.08
same,relative viability,COR-L23; first compound 0.4 µM,1.12
same,relative viability,COR-L23; first compound 4 µM,1.05
same,relative viability,COR-L 105; first compound 0.04 µM,0.28
same,relative viability,COR-L 105; first compound 0.1265 µM,0.302
same,relative viability,COR-L 105; first compound 0.4 µM,0.381
same,relative viability,COR-L 105; first compound 4 µM,0.359
same,relative viability,NCI-H1755; first compound 0.04 µM,1.1
same,relative viability,NCI-H1755; first compound 0.1265 µM,0.995
same,relative viability,NCI-H1755; first compound 0.4 µM,1
same,relative viability,NCI-H1755; first compound 4 µM,0.932
same,relative viability,EKVX; first compound 0.04 µM,0.271
same,relative viability,EKVX; first compound 0.1265 µM,0.179
same,relative viability,EKVX; first compound 0.4 µM,0.224
same,relative viability,EKVX; first compound 4 µM,0.211
same,relative viability,UMC-11; first compound 0.04 µM,0.984
same,relative viability,UMC-11; first compound 0.1265 µM,0.927
same,relative viability,UMC-11; first compound 0.4 µM,1.1
same,relative viability,UMC-11; first compound 4 µM,0.694
same,relative viability,NCI-H322M; first compound 0.04 µM,0.39
same,relative viability,NCI-H322M; first compound 0.1265 µM,0.587
same,relative viability,NCI-H322M; first compound 0.4 µM,0.626
same,relative viability,NCI-H322M; first compound 4 µM,0.535
same,relative viability,NCI-H2347; first compound 0.04 µM,0.79
same,relative viability,NCI-H2347; first compound 0.1265 µM,1.04
same,relative viability,NCI-H2347; first compound 0.4 µM,0.988
same,relative viability,NCI-H2347; first compound 4 µM,0.875
same,relative viability,HOP-62; first compound 0.04 µM,0.549
same,relative viability,HOP-62; first compound 0.1265 µM,1.01
same,relative viability,HOP-62; first compound 0.4 µM,1.19
same,relative viability,HOP-62; first compound 4 µM,0.953
same,relative viability,NCI-H838; first compound 0.04 µM,0.911
same,relative viability,NCI-H838; first compound 0.1265 µM,0.911
same,relative viability,NCI-H838; first compound 0.4 µM,0.883
same,relative viability,NCI-H838; first compound 4 µM,0.781
same,relative viability,PC-14; first compound 0.04 µM,0.277
same,relative viability,PC-14; first compound 0.1265 µM,0.298
same,relative viability,PC-14; first compound 0.4 µM,0.298
same,relative viability,PC-14; first compound 4 µM,0.316
same,relative viability,NCI-H358; first compound 0.04 µM,0.356
same,relative viability,NCI-H358; first compound 0.1265 µM,0.427
same,relative viability,NCI-H358; first compound 0.4 µM,0.39
same,relative viability,NCI-H358; first compound 4 µM,0.417
same,relative viability,HARA; first compound 0.04 µM,0.732
same,relative viability,HARA; first compound 0.1265 µM,0.613
same,relative viability,HARA; first compound 0.4 µM,0.796
same,relative viability,HARA; first compound 4 µM,0.738
same,relative viability,NCI-H1734; first compound 0.04 µM,1.02
same,relative viability,NCI-H1734; first compound 0.1265 µM,1.17
same,relative viability,NCI-H1734; first compound 0.4 µM,1.03
same,relative viability,NCI-H1734; first compound 4 µM,1.23
same,relative viability,NCI-H1395; first compound 0.04 µM,0.928
same,relative viability,NCI-H1395; first compound 0.1265 µM,1
same,relative viability,NCI-H1395; first compound 0.4 µM,1.06
same,relative viability,NCI-H1395; first compound 4 µM,0.93
